From PubChem BioAssay (NCI)
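48-hour exposure; five concentrations; linearly interpolated endpoints. TGI is the concentration that stops growth completely.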

Key:
Assay in all cases: NCI tumour cell line growth inhibition, 48 h
[1] = system: A498 renal
[2] = system: K-562 leukemia
[3] = system: SNB-75 CNS
[4] = system: SK-MEL-2 melanoma
[5] = system: KM12 colon
[6] = system: P388 leukemia
[7] = system: SNB-78 CNS
[8] = system: NCI-H522 lung
[9] = system: MCF7 breast
[10] = system: U251 CNS
[11] = system: UACC-257 melanoma
[12] = system: SK-MEL-28 melanoma
[13] = system: HOP-92 NSCLC
[14] = system: HCC-2998 colon
[15] = system: OVCAR-5 ovarian
[16] = system: COLO 205 colon
[17] = system: DMS 114 small cell lung
[18] = system: DLD-1 colon
[19] = system: IGROV1 ovarian
[20] = system: SN12K1 renal
[21] = system: OVCAR-8 ovarian
[22] = system: HOP-62 NSCLC
[23] = system: EKVX NSCLC
[24] = system: NCI-H226 lung
[25] = system: SF-539 CNS
[26] = system: SN12C renal
[27] = system: SW-620 colon
[28] = system: HOP-18 NSCLC
[29] = system: SF-295 CNS
[30] = system: DMS 273 small cell lung
[31] = system: NCI/ADR-RES ovarian
[32] = system: NCI-H460 lung
[33] = system: OVCAR-4 ovarian
[34] = system: SNB-19 CNS
[35] = system: UACC-62 melanoma
[36] = system: P388/ADR leukemia
[37] = system: LOX IMVI melanoma
[38] = system: HL-60(TB) leukemia
[39] = system: CAKI-1 renal
[40] = system: NCI-H23 lung
[41] = system: HT29 colon
[42] = system: OVCAR-3 ovarian
[43] = system: SK-OV-3 ovarian
[44] = system: CCRF-CEM leukemia
[45] = system: HCT-15 colon
[46] = system: M19-MEL melanoma
[47] = system: MOLT-4 leukemia
[48] = system: A549 NSCLC
[49] = system: MALME-3M melanoma
[50] = system: KM20L2 colon
[51] = system: UO-31 renal
[52] = system: SF-268 CNS
[53] = system: RPMI-8226 leukemia
[54] = system: SK-MEL-5 melanoma
[55] = system: HCT-116 colon
[56] = system: RXF 393 renal
[57] = system: XF 498 CNS

O=C(NC(Cc1ccc(I)cc1)C(=O)O)c1cccc(Br)c1 (centres undefined)
TGI [1]: > 100 µM
TGI [2]: > 100 µM
TGI [3]: > 100 µM
TGI [4]: > 100 µM
TGI [5]: > 100 µM
TGI [6]: > 100 µM
TGI [7]: > 100 µM
TGI [8]: > 100 µM
TGI [9]: > 100 µM
TGI [10]: > 100 µM
TGI [11]: > 100 µM
TGI [12]: > 100 µM
TGI [13]: > 100 µM
TGI [14]: > 93.1 µM
TGI [15]: > 100 µM
TGI [16]: > 100 µM
TGI [17]: > 100 µM
TGI [18]: > 100 µM
TGI [19]: > 100 µM
TGI [20]: > 100 µM
TGI [21]: > 100 µM
TGI [22]: > 100 µM
TGI [23]: > 100 µM
TGI [24]: > 100 µM
TGI [25]: > 100 µM
TGI [26]: > 100 µM
TGI [27]: > 100 µM
TGI [28]: > 100 µM
TGI [29]: > 100 µM
TGI [30]: > 100 µM
TGI [31]: > 100 µM
TGI [32]: > 100 µM
TGI [33]: > 100 µM
TGI [34]: > 100 µM
TGI [35]: > 100 µM
TGI [36]: > 100 µM
TGI [37]: > 100 µM
TGI [38]: > 100 µM
TGI [39]: > 100 µM
TGI [40]: > 100 µM
TGI [41]: > 100 µM
TGI [42]: > 100 µM
TGI [43]: > 100 µM
TGI [44]: > 100 µM
TGI [45]: > 100 µM
TGI [46]: > 100 µM
TGI [47]: > 100 µM
TGI [48]: > 100 µM
TGI [49]: > 100 µM
TGI [50]: > 100 µM
TGI [51]: > 100 µM
TGI [52]: > 100 µM
TGI [53]: > 100 µM
TGI [54]: > 100 µM
TGI [55]: > 100 µM

COc1ccc(OC)c(C#N)c1C#N (tested in a mixture with another compound)
TGI [1]: > 100 µM
TGI [2]: > 100 µM
TGI [3]: > 100 µM
TGI [4]: > 100 µM
TGI [5]: > 100 µM
TGI [6]: > 100 µM
TGI [7]: > 100 µM
TGI [9]: > 100 µM
TGI [10]: > 100 µM
TGI [11]: > 100 µM
TGI [12]: > 100 µM
TGI [13]: > 100 µM
TGI [14]: > 100 µM
TGI [15]: > 100 µM
TGI [16]: > 100 µM
TGI [18]: > 100 µM
TGI [19]: > 100 µM
TGI [20]: > 100 µM
TGI [21]: > 100 µM
TGI [22]: > 100 µM
TGI [23]: > 88 µM
TGI [24]: > 100 µM
TGI [25]: > 100 µM
TGI [26]: > 100 µM
TGI [27]: > 100 µM
TGI [29]: > 100 µM
TGI [30]: > 100 µM
TGI [31]: > 100 µM
TGI [56]: > 100 µM
TGI [32]: > 100 µM
TGI [33]: > 100 µM
TGI [34]: > 100 µM
TGI [35]: > 100 µM
TGI [36]: > 100 µM
TGI [37]: > 100 µM
TGI [38]: > 100 µM
TGI [39]: > 100 µM
TGI [40]: > 100 µM
TGI [41]: > 100 µM
TGI [42]: > 100 µM
TGI [43]: > 100 µM
TGI [44]: > 100 µM
TGI [45]: > 100 µM
TGI [46]: > 100 µM
TGI [47]: > 100 µM
TGI [48]: > 100 µM
TGI [49]: > 100 µM
TGI [57]: > 100 µM
TGI [50]: > 100 µM
TGI [51]: > 100 µM
TGI [52]: > 100 µM
TGI [53]: > 100 µM
TGI [54]: > 100 µM
TGI [55]: > 100 µM
